The source of these data is PMC7056863, “Development of a CDK10/CycM in vitro Kinase Screening Assay and Identification of First Small-Molecule Inhibitors” (Frontiers in Chemistry, 2020).

Read-outs that look alike come from different tables or passages of the source.

The target in data set [1] is T1, GST-CDK10/Strep2-CycM (CDK10/CycM) (Homo sapiens, UniProt Q15131).
T1 construct: GST-CDK10 co-expressed with Strep2-CycM (pFastBacDual) in Sf9 cells, glutathione sepharose purified heterodimer, tags kept; with Cyclin-Q
T1 sequence (Q8N1B3 whole entry partner, one chain of several): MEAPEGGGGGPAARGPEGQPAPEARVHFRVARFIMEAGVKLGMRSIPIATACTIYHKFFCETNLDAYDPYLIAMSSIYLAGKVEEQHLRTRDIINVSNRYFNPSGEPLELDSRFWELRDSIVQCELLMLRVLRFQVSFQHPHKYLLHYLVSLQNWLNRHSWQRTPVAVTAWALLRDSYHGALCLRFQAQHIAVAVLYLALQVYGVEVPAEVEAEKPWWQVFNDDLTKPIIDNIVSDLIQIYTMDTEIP
The experiment in a line: ADP-Glo luminescent kinase assay, CDK10tide (Jar1) peptide. It is filed as biochemical. The text has this:
ADP-Glo luminescent kinase assay, CDK10tide (Jar1) peptide on GST-CDK10/Strep2-CycM (CDK10/CycM)

Data set [2] has as its target T1, GST-CDK10/Strep2-CycM (CDK10/CycM). Description: in vitro kinase assay. It is filed as biochemical. Particulars: for inhibition at 1 µM: read-out: % inhibition at 1 uM.
Substrate in data set [3]: Nc1ncnc2c1ncn2[C@@H]1O[C@H](COP(=O)(O)OP(=O)(O)OP(=O)(O)O)[C@@H](O)[C@H]1O
The experiment in a line: ADP-Glo luminescent kinase assay, ATP titration, Michaelis-Menten. It is filed as biochemical, Homo sapiens. Particulars: […] CDK10tide, […] enzyme, […] ATP, […] MgCl2, pH […]. Background: ADP-Glo first removes unused ATP, then detects ADP through luciferase.

The mark [4] stands for this setting: read-out: CDK10/CycM (measured herein).

In the case of `CC(=O)N[C@@H]1CCC[C@H](C(=O)Nc2cc(-c3cnn4c3CC(C)(C)C4)c(Cl)cn2)C1` [AZD4573], the IC50 in data set [1] (setting [4]) is 36 nM.

For the molecule `CC[C@H](CO)Nc1nc(NCc2ccc(-c3ccccn3)cc2)c2ncn(C(C)C)c2n1` [CR8], in data set [2], the inhibition at 1 µM is less than 50%.

`CCc1cnn2c(NCc3ccc[n+]([O-])c3)cc(N3CCCC[C@H]3CCO)nc12` [dinaciclib]: the IC50 in data set [1] (read-out: CDK9/CycT1 (measured herein)) worked out at 13 nM.

For `Cn1cnc2c(NCc3ccccc3)nc(NCCO)nc21` [olomoucine], the inhibition at 1 µM in data set [2] is less than 50%.

On to `CC(=O)c1c(C)c2cnc(Nc3ccc(N4CCNCC4)cn3)nc2n(C2CCCC2)c1=O` [palbociclib], for which the inhibition at 1 µM in data set [2] is less than 50%.

For `CN1CC[C@H](c2c(O)cc(O)c3c(=O)cc(-c4ccccc4Cl)oc23)[C@H]1CO` [riviciclib], the IC50 in data set [1] (setting [4]) was determined as 280 nM.

Take `CC[C@H](CO)Nc1nc(NCc2ccccc2)c2ncn(C(C)C)c2n1` [roscovitine]: in data set [2], the inhibition at 1 µM is less than 50%.

Regarding meriolin, the “% inhibition at 1 uM” value in data set [2] (data not shown, text: not greater than […]) is less than 50%.

B1: GST-CDK10/Strep2-CycM (CDK10/CycM) (Homo sapiens) (protein)
chain: MAEPDLECEQIRLKCIRKEGFFTVPPEHRLGRCRSVKEFEKLNRIGEGTYGIVYRARDTQTDEIVALKKVRMDKEKDGIPISSLREITLLLRLRHPNIVELKEVVVGNHLESIFLVMGYCEQDLASLLENMPTPFSEAQVKCIVLQVLRGLQYLHRNFIIHRDLKVSNLLMTDKGCVKTADFGLARAYGVPVKPMTPKVVTLWYRAPELLLGTTTQTTSIDMWAVGCILAELLAHRPLLPGTSEIHQIDLIVQLLGTPSENIWPGFSKLPLVGQYSLRKQPYNNLKHKFPWLSEAGLRLLHFLFMYDPKKRATAGDCLESSYFKEKPLPCEPELMPTFPHHRNKRAAPATSEGQSKRCKP
notes: GST-CDK10 co-expressed with Strep2-CycM (pFastBacDual) in Sf9 cells, glutathione sepharose purified heterodimer, tags kept; with Cyclin-Q
For the molecule B1, the Km in data set [3] came out at 177 µM.

A word on the inhibition: it is the change of the read-out against control, counted positive when it falls. One may read the % inhibition as how much of the control response was suppressed. The low end stands for a weak effect, the high end for a strong effect. The Km is the substrate concentration at which the rate is half of its maximum.
